From patent US8993765B2, “Tetrahydro-azacarboline MCH-1 antagonists, methods of making, and uses thereof” (Albany Molecular Research, Inc., priority 2010, dated 2015)
Structures can show the parent of a compound that is named as a salt.

target: human MCH-1 receptor (Homo sapiens (Human), UniProt Q99705); test: Binding Assay for Human Melanin-Concentrating Hormone (MCH-1) Receptor; conditions: @ 1 uM test compound; membranes of CHO-K1 cells expressing human MCH-1 receptor; read-out: MCH1 percent inhibition of control radioligand specific binding
Sequence (Q99705 whole entry): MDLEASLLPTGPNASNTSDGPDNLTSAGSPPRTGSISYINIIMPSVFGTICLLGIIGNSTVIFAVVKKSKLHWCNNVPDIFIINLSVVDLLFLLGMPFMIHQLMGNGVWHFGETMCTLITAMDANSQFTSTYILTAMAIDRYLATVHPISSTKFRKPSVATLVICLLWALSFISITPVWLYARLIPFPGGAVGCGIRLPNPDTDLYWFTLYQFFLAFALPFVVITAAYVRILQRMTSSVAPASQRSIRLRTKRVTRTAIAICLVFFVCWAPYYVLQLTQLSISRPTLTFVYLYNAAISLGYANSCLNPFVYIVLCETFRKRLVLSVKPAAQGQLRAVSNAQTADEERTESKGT
Method: Binding Assay for Human Melanin-Concentrating Hormone (MCH-1) Receptor
Evaluation of the affinity of compounds for the human MCH-1 receptor was accomplished using 4-(3,4,5-tritritiumbenzyloxy)-1-(1-(2-(pyrrolidin-1-yl)ethyl)-1H-indazol-5-yl)pyridin-2(1H)-one and membranes prepared from stable CHO-K1 cells expressing the human MCH-1 receptor obtained from Euroscreen (Batch 1138). Cell membrane homogenates (8.92 μg protein) were incubated for 60 min at 25° C. with […] of the [^3H]-labeled compound in the absence or presence of the test compound in 50 mM Tris-HCl buffer, pH 7.4. Nonspecific binding was determined in the presence of 50 μM 1-(5-(4-cyanophenyl)bicyclo[3.1.0]hexan-2-yl)-3-(4-fluoro-3-(trifluoromethyl)phenyl)-1-(3-(4-methylpiperazin-1-yl)propyl)urea. Following incubation, the samples were filtered rapidly under vacuum through Skatron 11731 filters, pre-soaked in 0.5% polyethylenimine, and washed with ice-cold 50 mM Tris-HCl buffer, pH 7.4, (wash setting 9,9,0) using a Skatron cell harvester. The filters were counted for radioactivity in a liquid scintillation counter (Tri-Carb 2100TR, Packard) using a scintillation cocktail (Ultima Gold MV, Perkin Elmer).
The results are expressed as a percent inhibition of the control radioligand specific binding. The IC50 value (concentration causing a half-maximal inhibition of control specific binding) and Hill coefficient (nH) were determined by non-linear regression analysis of the competition curve using Hill equation curve fitting. The inhibition constant (Ki) was calculated from the Cheng Prusoff equation: (Ki=IC50/(1+(L/KD)), where L=concentration of radioligand in the assay, and KD=affinity of the radioligand for the receptor.

SMILES	inhibition at 1 µM [%]
O=c1cc(-c2ccc(C(F)(F)F)cc2)ccn1-c1ccc2c(c1)nc1n2CCNC1 [Example 20, 1-(1,2,3,4-Tetrahydropyrazino[1,2-a]benzimidazol-8-yl)-4-(4-(trifluoromethyl)phenyl)pyridin-2(1H)-one hydrochloride]	61

same assay, conditions: radioligand displacement, membranes of CHO-K1 cells expressing human MCH-1 receptor; Ki by Cheng Prusoff equation; hydrochloride; read-out: MCH1 Ki

SMILES	Ki [µM]
CC1Cc2c(c3ccc(-n4ccc(OCc5ccccc5)cc4=O)nc3n2C)CN1 (single isomer, unassigned; (-)) [Example 17, (−)-4-(Benzyloxy)-1-(7,9-dimethyl-5,7,8,9-tetrahydro-6H-pyrido[3′,4′:4,5]pyrrolo[2,3-b]pyridin-2-yl)pyridin-2(1H)-one hydrochloride]	0.0091
CC1Cc2c(c3ccc(-n4ccc(OCc5ccccc5)cc4=O)nc3n2C)CN1.Cl (stereo not shown) [Example 13, 4-(Benzyloxy)-1-(7,9-dimethyl-5,7,8,9-tetrahydro-6H-pyrido[3′,4′:4,5]pyrrolo[2,3-b]pyridin-2-yl)pyridin-2(1H)-one hydrochloride]	0.0093

same assay, conditions: radioligand displacement, membranes of CHO-K1 cells expressing human MCH-1 receptor; Ki by Cheng Prusoff equation; read-out: MCH1 Ki

SMILES	Ki [µM]
CC(=O)N1Cc2c(n(C)c3nc(-n4ccc(OCc5ccccc5)cc4=O)ccc23)CC1C (single isomer, unassigned; enantiomer a) [Example 29, 1-(6-Acetyl-7,9-dimethyl-5,7,8,9-tetrahydro-6H-pyrido[3′,4′:4,5]pyrrolo[2,3-b]pyridin-2-yl)-4-(benzyloxy)pyridin-2(1H)-one (Enantiomer A)]	0.081
Cn1c2c(c3ccc(-n4ccc(OCc5ccccc5)cc4=O)nc31)CNCC2 [Example 2, 4-(Benzyloxy)-1-(9-methyl-5,7,8,9-tetrahydro-6H-pyrido[3′,4′:4,5]pyrrolo[2,3-b]pyridin-2-yl)pyridin-2(1H)-one dihydrochloride]	0.0071
Cn1c2c(c3ccc(N4CCN(CCc5ccccc5)CC4=O)nc31)CNCC2 [Example 3, 1-(9-Methyl-5,7,8,9-tetrahydro-6H-pyrido[3′,4′:4,5]pyrrolo[2,3-b]pyridin-2-yl)-4-phenethylpiperazin-2-one dihydrochloride]	0.047
Cn1c2c(c3ccc(-n4ccc(OCc5ccc(F)cn5)cc4=O)nc31)CNCC2 [Example 4, 4-((5-Fluoropyridin-2-yl)methoxy)-1-(9-methyl-5,7,8,9-tetrahydro-6H-pyrido[3′,4′:4,5]pyrrolo[2,3-b]pyridin-2-yl)pyridin-2(1H)-one hydrochloride]	0.015
Cn1c2c(c3ccc(-n4ccc(-c5ccc(C(F)(F)F)nn5)cc4=O)nc31)CNCC2 [Example 5, 1-(9-Methyl-5,7,8,9-tetrahydro-6H-pyrido[3′,4′:4,5]pyrrolo[2,3-b]pyridin-2-yl)-4-(6-(trifluoromethyl)pyridazin-3-yl)pyridin-2(1H)-one hydrochloride]	0.105
Cn1c2c(c3ccc(-n4ccc(-c5ccc(C(F)(F)F)nc5)cc4=O)nc31)CNCC2 [Example 6, 1-(9-Methyl-5,7,8,9-tetrahydro-6H-pyrido[3′,4′:4,5]pyrrolo[2,3-b]pyridin-2-yl)-4-(6-(trifluoromethyl)pyridin-3-yl)pyridin-2(1H)-one hydrochloride]	0.015
Cn1c2c(c3ccc(-n4ccc(OCc5ccc(C(F)(F)F)nc5)cc4=O)nc31)CNCC2 [Example 7, 1-(9-Methyl-5,7,8,9-tetrahydro-6H-pyrido[3′,4′:4,5]pyrrolo[2,3-b]pyridin-2-yl)-4-((6-(trifluoromethyl)pyridin-3-yl)methoxy)pyridin-2(1H)-one hydrochloride]	0.071
Cn1c2c(c3ccc(-n4ccc(-c5ccc(C(F)(F)F)cn5)cc4=O)nc31)CNCC2 [Example 8, 1-(9-Methyl-5,7,8,9-tetrahydro-6H-pyrido[3′,4′:4,5]pyrrolo[2,3-b]pyridin-2-yl)-4-(5-(trifluoromethyl)pyridin-2-yl)pyridin-2(1H)-one hydrochloride]	0.033
CC(=O)N1CCc2c(c3ccc(-n4ccc(-c5ccc(C(F)(F)F)nc5)cc4=O)nc3n2C)C1 [Example 9, 1-(6-Acetyl-9-methyl-5,7,8,9-tetrahydro-6H-pyrido[3′,4′:4,5]pyrrolo[2,3-b]pyridin-2-yl)-4-(6-(trifluoromethyl)pyridin-3-yl)pyridin-2(1H)-one]	0.078
Cl.Cn1c2c(c3ccc(-n4ccc(-c5ccc(C(F)(F)F)cc5)cc4=O)nc31)CNCC2 [Example 10, 1-(9-Methyl-5,7,8,9-tetrahydro-6H-pyrido[3′,4′:4,5]pyrrolo[2,3-b]pyridin-2-yl)-4-(4-(trifluoromethyl)phenyl)pyridin-2(1H)-one hydrochloride]	0.0047
CC(=O)N1CCc2c(c3ccc(-n4ccc(OCc5ccccc5)cc4=O)nc3n2C)C1 [Example 11, 1-(6-Acetyl-9-methyl-5,7,8,9-tetrahydro-6H-pyrido[3′,4′:4,5]pyrrolo[2,3-b]pyridin-2-yl)-4-(benzyloxy)pyridin-2(1H)-one]	0.071
CC1Cc2c(c3ccc(N4CCN(CCc5ccc(F)cc5)CC4=O)nc3n2C)CN1.Cl (stereo not shown) [Example 12, 1-(7,9-Dimethyl-5,7,8,9-tetrahydro-6H-pyrido[3′,4′:4,5]pyrrolo[2,3-b]pyridin-2-yl)-4-(4-fluorophenethyl)piperazin-2-one hydrochloride]	0.058
Cn1c2c(c3ccc(-n4ccc(OCc5ccc(Cl)cc5Cl)cc4=O)nc31)CNCC2 [Example 15, 4-((2,4-Dichlorophenyl)methoxy)-1-(9-methyl-5,7,8,9-tetrahydro-6H-pyrido[3′,4′:4,5]pyrrolo[2,3-b]pyridin-2-yl)pyridin-2(1H)-one hydrochloride]	0.017
O=c1cc(OCc2ccccc2)ccn1-c1ccc2c(c1)nc1n2CCNC1 [Example 18, 4-(Benzyloxy)-1-(1,2,3,4-tetrahydropyrazino[1,2-a]benzimidazol-8-yl)pyridin-2(1H)-one hydrochloride]	0.062
CC(C)N1CCn2c(nc3cc(-n4ccc(OCc5ccccc5)cc4=O)ccc32)C1 [Example 21, 4-(Benzyloxy)-1-(2-(propan-2-yl)-1,2,3,4-tetrahydropyrazino[1,2-a]benzimidazol-8-yl)pyridin-2(1H)-one hydrochloride]	0.094
O=c1cc(OCc2ccc(F)cn2)ccn1-c1ccn2c3c(nc2c1)CCNC3 [Example 23, 4-((5-Fluoropyridin-2-yl)methoxy)-1-(1,2,3,4-tetrahydropyrido[4′,3′:4,5]imidazo[1,2-a]pyridin-7-yl)pyridin-2(1H)-one hydrochloride]	0.03
O=c1cc(-c2ccc(C(F)(F)F)nc2)ccn1-c1ccn2c3c(nc2c1)CCNC3 [Example 24, 1-(1,2,3,4-Tetrahydropyrido[4′,3′:4,5]imidazo[1,2-a]pyridin-7-yl)-4-(6-(trifluoromethyl)pyridin-3-yl)pyridin-2(1H)-one hydrochloride]	0.616
O=c1cc(OCc2ccc(C(F)(F)F)nc2)ccn1-c1ccn2c3c(nc2c1)CCNC3 [Example 25, 1-(1,2,3,4-Tetrahydropyrido[4′,3′:4,5]imidazo[1,2-a]pyridin-7-yl)-4-((6-(trifluoromethyl)pyridin-3-yl)methoxy)pyridin-2(1H)-one hydrochloride]	3.32
O=c1cc(-c2ccc(C(F)(F)F)cc2)ccn1-c1ccn2c3c(nc2c1)CCNC3 [Example 26, 1-(1,2,3,4-Tetrahydropyrido[4′,3′:4,5]imidazo[1,2-a]pyridin-7-yl)-4-(4-(trifluoromethyl)phenyl)pyridin-2(1H)-one hydrochloride]	0.023
CC(C)N1CCc2nc3cc(-n4ccc(OCc5ccccc5)cc4=O)ccn3c2C1 [Example 27, 4-(Benzyloxy)-1-(2-(propan-2-yl)-1,2,3,4-tetrahydropyrido[4′,3′:4,5]imidazo[1,2-a]pyridin-7-yl)pyridin-2(1H)-one hydrochloride]	0.019
Cn1c2c(c3ccc(-n4ccc(OCc5ccccc5)cc4=O)nc31)C(=O)NCC2 [Example 28, 4-(Benzyloxy)-1-(9-methyl-5-oxo-5,7,8,9-tetrahydro-6H-pyrido[3′,4′:4,5]pyrrolo[2,3-b]pyridin-2-yl)pyridin-2(1H)-one]	0.103

tested on: not given; test: not given; conditions: not given

SMILES	melting point
O=c1cc(-c2ccc(C(F)(F)F)nc2)ccn1-c1ccn2c3c(nc2c1)CCNC3 (as salt: hydrochloride) [Example 24, 1-(1,2,3,4-Tetrahydropyrido[4′,3′:4,5]imidazo[1,2-a]pyridin-7-yl)-4-(6-(trifluoromethyl)pyridin-3-yl)pyridin-2(1H)-one hydrochloride]	265 °C (dec.)
O=c1cc(OCc2ccc(C(F)(F)F)nc2)ccn1-c1ccn2c3c(nc2c1)CCNC3 (as salt: hydrochloride) [Example 25, 1-(1,2,3,4-Tetrahydropyrido[4′,3′:4,5]imidazo[1,2-a]pyridin-7-yl)-4-((6-(trifluoromethyl)pyridin-3-yl)methoxy)pyridin-2(1H)-one hydrochloride]	265 °C (dec.)
CC(=O)N1CCc2c(c3ccc(-n4ccc(-c5ccc(C(F)(F)F)nc5)cc4=O)nc3n2C)C1 [Example 9, 1-(6-Acetyl-9-methyl-5,7,8,9-tetrahydro-6H-pyrido[3′,4′:4,5]pyrrolo[2,3-b]pyridin-2-yl)-4-(6-(trifluoromethyl)pyridin-3-yl)pyridin-2(1H)-one]	238 to 242 °C
Cl.Cn1c2c(c3ccc(-n4ccc(-c5ccc(C(F)(F)F)cc5)cc4=O)nc31)CNCC2 [Example 10, 1-(9-Methyl-5,7,8,9-tetrahydro-6H-pyrido[3′,4′:4,5]pyrrolo[2,3-b]pyridin-2-yl)-4-(4-(trifluoromethyl)phenyl)pyridin-2(1H)-one hydrochloride]	278 to 281 °C (dec.)
CC(=O)N1CCc2c(c3ccc(-n4ccc(OCc5ccccc5)cc4=O)nc3n2C)C1 [Example 11, 1-(6-Acetyl-9-methyl-5,7,8,9-tetrahydro-6H-pyrido[3′,4′:4,5]pyrrolo[2,3-b]pyridin-2-yl)-4-(benzyloxy)pyridin-2(1H)-one]	206 to 208 °C
CC1Cc2c(c3ccc(N4CCN(CCc5ccc(F)cc5)CC4=O)nc3n2C)CN1.Cl (stereo not shown) [Example 12, 1-(7,9-Dimethyl-5,7,8,9-tetrahydro-6H-pyrido[3′,4′:4,5]pyrrolo[2,3-b]pyridin-2-yl)-4-(4-fluorophenethyl)piperazin-2-one hydrochloride]	252 to 256 °C
CC1Cc2c(c3ccc(-n4ccc(OCc5ccccc5)cc4=O)nc3n2C)CN1.Cl (stereo not shown) [Example 13, 4-(Benzyloxy)-1-(7,9-dimethyl-5,7,8,9-tetrahydro-6H-pyrido[3′,4′:4,5]pyrrolo[2,3-b]pyridin-2-yl)pyridin-2(1H)-one hydrochloride]	285 to 289 °C
